Tested on: SU-DHL-1 lymphoma cells
Details: mouse, in vivo

SMILES: O=P1(N(CCCl)CCCl)NCCCO1 (stereo not drawn) [cyclophosphamide]
- animal weight relative to the average weight on day 0: 104.7%±1.6%
- mean tumor volume: 367±79 mm^3
- tumor volume inhibition rate TGITV: −93%

From US20240050395A1 (priority 2020, published 2024)
